Where two headings read alike, the source gives them in different places.
Legend:
thrombus formation = settings: cited from earlier work
[1] = system: phospho-VASP (serine 157) in washed human platelets; assay: Vasodilator-stimulated phosphoprotein phosphorylation in human platelets (Western blot); assay type: cell-based; settings: washed human platelets treated for one minute; 5 nm to 20 μM tested
Experimental: Citrated whole blood was centrifuged (200 g for 10 min) to isolate platelet-rich plasma. Platelet-rich plasma was treated with acid citrate dextrose (2.5% sodium citrate, 1.5% citric acid, 2.0% D-glucose) and apyrase (0.02 U/mL), and then centrifuged (2000 g for 10 mins) to pellet the platelets. Platelets were resuspended at 3.0×10^8 platelets/mL in Tyrode's buffer (10 mM HEPES, 12 mM NaHCO3, 127 mM NaCl, 5 mM KCl, 0.5 mM NaH2PO4, 1 mM MgCl2, and 5 mM glucose) unless otherwise stated.
Washed platelets were treated with forskolin (0.5 μM), 12-HETre (20 μM), or compound A3 (5 nm, 10 nm, 25 nm, 50 nm, 100 n, 250 nm, 1 μM, 5 μM, 10 μM, and 20 μM) for one minute, then directly lysed in 5× Laemmli sample buffer (1.5 M Tris-HCl, pH 6.8, glycerol, 5% β-mercaptoethanol, 10% sodium dodecyl sulfate (SDS), and 1% bromophenol blue). The samples were boiled for five minutes and then run on a 10% SDS-PAGE gel. The levels of total and phospho-VASP (serine 157) were quantified by Western Blot using an Odyssey imaging system (LI-CoR). […] Compound A3 induced VASP phosphorylation at a concentration as low as 10 nm.

[2] = Pharmacokinetic study: compound concentration in mouse blood plasma after PO and IV administration; assay type: in vivo, mice; settings: for Concentration in Plasma, Mouse 2: value marked as outlier; for concentration at 2 h / concentration at 4 h / concentration at 7 h: mouse, plasma, 30 mg/kg
Experimental: The blood plasma concentration of compound A3 in mice was determined following per os, oral compound administration (“PO”) and intravenous (“IV”) administration
Calibration curve. The concentration range was evaluated from 1-5000 ng/ml for compound A3. The curve was built with linear regression with weighing (1/X2). The linear regression analysis was performed by plotting the peak area ratio (y) against the concentration (x) in ng/mL.
Instrument Conditions. The LC-MS and mass spectrometry conditions for the compounds tested are shown below.
Results. The individual and average compound A3 concentration-time data for IV and PO dosed groups are listed in Table 1, and graphically presented in FIG. 1.

platelets = settings: cited from earlier work

In the case of `CCCCC/C=C\C[C@H](O)/C=C/C=C\CCCCCCC(=O)O` [Compound 12-HETrE, 12(S)-hydroxyeicosatetrienoic acid], the “Thrombus formation following vessel injury” value (thrombus formation; irrespective of 12-LOX expression) is given as “potently impaired thrombus formation”.
In the case of `CC(C)N(CCCCSc1n[nH]c(=O)[nH]1)c1cnc(-c2ccccc2)c(-c2ccccc2)n1` [Compound A3, 5-((4-((5,6-diphenylpyrazin-2-yl)(isopropyl)amino)butyl)thio)-2,4-dihydro-3H-1,2,4-triazol-3-one], the “Lowest concentration that induced VASP phosphorylation” value [1] is reported as 10 nm, the “Concentration in Plasma, Mouse 2” value ([2]; PO 30 mg/kg, 2 h) is reported as “*809.0 ng/ml” and the “Concentration in Plasma, Mouse 2” value ([2]; PO 30 mg/kg, 4 h) is reported as “*812.7 ng/ml”. For the same molecule, the concentration at 2 h ([2]; iv, IV 30 mg/kg, 2 h, n=3, read-out: Concentration in Plasma, Mean) was 164 ng/mL, the concentration at 2 h ([2]; iv, IV 30 mg/kg, 2 h, read-out: Concentration in Plasma, Mouse 1) was 203 ng/mL and the concentration at 2 h ([2]; iv, IV 30 mg/kg, 2 h, read-out: Concentration in Plasma, Mouse 2) was 158 ng/mL. The concentration at 2 h ([2]; iv, IV 30 mg/kg, 2 h, read-out: Concentration in Plasma, Mouse 3) was 131 ng/mL, the concentration at 4 h ([2]; iv, IV 30 mg/kg, 4 h, n=3, read-out: Concentration in Plasma, Mean) was 106 ng/mL and the concentration at 4 h ([2]; iv, IV 30 mg/kg, 4 h, read-out: Concentration in Plasma, Mouse 1) was 135 ng/mL. It also gave a concentration at 4 h ([2]; iv, IV 30 mg/kg, 4 h, read-out: Concentration in Plasma, Mouse 2) of 80.3 ng/mL, a concentration at 4 h ([2]; iv, IV 30 mg/kg, 4 h, read-out: Concentration in Plasma, Mouse 3) of 102 ng/mL and a concentration at 7 h ([2]; iv, IV 30 mg/kg, n=3, read-out: Concentration in Plasma, Mean) of 97.6 ng/mL. For the same molecule, the concentration at 7 h ([2]; iv, IV 30 mg/kg, read-out: Concentration in Plasma, Mouse 1) was 123 ng/mL, the concentration at 7 h ([2]; iv, IV 30 mg/kg, read-out: Concentration in Plasma, Mouse 2) was 76.9 ng/mL and the concentration at 7 h ([2]; iv, IV 30 mg/kg, read-out: Concentration in Plasma, Mouse 3) was 92.7 ng/mL. For the same molecule, the concentration at 2 h ([2]; po, PO 30 mg/kg, 2 h, outlier left out, read-out: Concentration in Plasma, Mean) was 119 ng/mL, the concentration at 2 h ([2]; po, PO 30 mg/kg, 2 h, read-out: Concentration in Plasma, Mouse 1) was 186 ng/mL and the concentration at 2 h ([2]; po, PO 30 mg/kg, 2 h, read-out: Concentration in Plasma, Mouse 3) was 52.5 ng/mL. It also gave a concentration at 4 h ([2]; po, PO 30 mg/kg, 4 h, outlier left out, read-out: Concentration in Plasma, Mean) of 34.5 ng/mL, a concentration at 4 h ([2]; po, PO 30 mg/kg, 4 h, read-out: Concentration in Plasma, Mouse 1) of 46.5 ng/mL and a concentration at 4 h ([2]; po, PO 30 mg/kg, 4 h, read-out: Concentration in Plasma, Mouse 3) of 22.5 ng/mL. It also gave a concentration at 7 h ([2]; po, PO 30 mg/kg, n=3, read-out: Concentration in Plasma, Mean) of 28.3 ng/mL, a concentration at 7 h ([2]; po, PO 30 mg/kg, read-out: Concentration in Plasma, Mouse 1) of 46.3 ng/mL and a concentration at 7 h ([2]; po, PO 30 mg/kg, read-out: Concentration in Plasma, Mouse 2) of 19.1 ng/mL. For the same molecule, the concentration at 7 h ([2]; po, PO 30 mg/kg, read-out: Concentration in Plasma, Mouse 3) was 19.3 ng/mL.
For `CCCCC/C=C\C/C=C\C/C=C\CCCCCCC(=O)O` [DGLA, Dihomo-γ-linolenic acid], the Thrombus formation (thrombus formation; 12-LOX−/− mice) is listed as “unable to inhibit thrombus formation”, the “Platelet thrombus formation in vivo” value (thrombus formation; following an insult to the vessel wall) is listed as “inhibited platelet thrombus formation in vivo” and the “Platelet aggregation ex vivo” value (platelets) is listed as “inhibit platelet aggregation ex vivo”.

— patent publication US12269805B2, “Inhibitors of platelet function and methods for use of the same” (THE REGENTS OF THE UNIVERSITY OF MICHIGAN, priority 2018, dated 2025)
